Results from ChEMBL document CHEMBL5042492, “Noncovalent CDK12/13 dual inhibitors-based PROTACs degrade CDK12-Cyclin K complex and induce synthetic lethality with PARP inhibitor” (Eur J Med Chem, 2022).

Assays:
MDA-MB-231 [1] = test: Antiproliferative activity against human MDA-MB-231 cells at 1 uM for 10 days by SRB staining based clone formation assay relative to control; format: functional; details: MDA-MB-231, 240 h, time 10 day
MDA-MB-231 [2] = test: Antiproliferative activity against human MDA-MB-231 cells at 3 uM for 10 days by SRB staining based clone formation assay relative to control; format: functional; details: MDA-MB-231, 240 h, time 10 day

## O=C(c1cc(Cc2n[nH]c(=O)c3ccccc23)ccc1F)N1CCN(C(=O)C2CC2)CC1 [OLAPARIB]
MDA-MB-231 [1]
  inhibition at 1 µM: 12.4%
MDA-MB-231 [2]
  inhibition at 3 µM: 98%
